What all share (settings): Compound concentration 10 µM
Experiment [1] has as its target T1, 5-hydroxytryptamine receptor 1A (Homo sapiens) (UniProt P08908).
T1 sequence (whole entry): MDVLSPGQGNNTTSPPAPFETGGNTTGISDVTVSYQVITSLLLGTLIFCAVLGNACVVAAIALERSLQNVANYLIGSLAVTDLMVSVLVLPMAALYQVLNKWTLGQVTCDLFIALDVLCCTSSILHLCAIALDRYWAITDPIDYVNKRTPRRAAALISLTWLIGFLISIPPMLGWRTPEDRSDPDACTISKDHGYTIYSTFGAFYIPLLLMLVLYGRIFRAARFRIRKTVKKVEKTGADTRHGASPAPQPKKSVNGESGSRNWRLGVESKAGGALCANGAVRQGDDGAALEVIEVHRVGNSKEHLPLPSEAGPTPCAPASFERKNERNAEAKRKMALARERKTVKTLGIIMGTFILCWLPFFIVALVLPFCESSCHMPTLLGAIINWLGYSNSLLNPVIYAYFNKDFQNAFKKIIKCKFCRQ
Description: PDSP Primary Binding target: HTR1A - Compounds are tested at 10 uM concentration, plate are incubated at room temperature in the dark for 90 minutes. Reaction are stopped by vacuum filtration onto 0.3% polyethyleneimine soaked filter mats using Filtermate harvester. Scintilation cocktail is then melted onto microwave-dried filters on a hot plate and the radio activity is counted in Microbia counter.

For experiment [2], the target named is Beta-1 adrenergic receptor (Homo sapiens) (UniProt P08588).
Sequence of Beta-1 adrenergic receptor (Homo sapiens) (P08588 whole entry, looked up): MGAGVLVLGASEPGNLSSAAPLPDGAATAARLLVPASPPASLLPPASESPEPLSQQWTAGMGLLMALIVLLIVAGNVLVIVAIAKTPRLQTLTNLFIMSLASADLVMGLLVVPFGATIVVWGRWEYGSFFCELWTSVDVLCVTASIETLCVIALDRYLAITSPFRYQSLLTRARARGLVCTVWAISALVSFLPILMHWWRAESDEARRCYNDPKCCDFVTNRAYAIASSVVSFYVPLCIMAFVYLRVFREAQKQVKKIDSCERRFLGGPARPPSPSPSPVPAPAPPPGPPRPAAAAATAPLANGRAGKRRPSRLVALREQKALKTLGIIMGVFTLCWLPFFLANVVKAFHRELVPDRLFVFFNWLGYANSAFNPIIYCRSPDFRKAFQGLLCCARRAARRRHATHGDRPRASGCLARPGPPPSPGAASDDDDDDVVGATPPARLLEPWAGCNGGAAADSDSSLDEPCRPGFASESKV
Description: PDSP Primary Binding target: ADRB1 - Compounds are tested at 10 uM concentration, plate are incubated at room temperature in the dark for 90 minutes. Reaction are stopped by vacuum filtration onto 0.3% polyethyleneimine soaked filter mats using Filtermate harvester. Scintilation cocktail is then melted onto microwave-dried filters on a hot plate and the radio activity is counted in Microbia counter.
Experiment [3] addresses T2, Alpha-1D adrenergic receptor (Homo sapiens) (UniProt P25100).
T2 sequence (whole entry): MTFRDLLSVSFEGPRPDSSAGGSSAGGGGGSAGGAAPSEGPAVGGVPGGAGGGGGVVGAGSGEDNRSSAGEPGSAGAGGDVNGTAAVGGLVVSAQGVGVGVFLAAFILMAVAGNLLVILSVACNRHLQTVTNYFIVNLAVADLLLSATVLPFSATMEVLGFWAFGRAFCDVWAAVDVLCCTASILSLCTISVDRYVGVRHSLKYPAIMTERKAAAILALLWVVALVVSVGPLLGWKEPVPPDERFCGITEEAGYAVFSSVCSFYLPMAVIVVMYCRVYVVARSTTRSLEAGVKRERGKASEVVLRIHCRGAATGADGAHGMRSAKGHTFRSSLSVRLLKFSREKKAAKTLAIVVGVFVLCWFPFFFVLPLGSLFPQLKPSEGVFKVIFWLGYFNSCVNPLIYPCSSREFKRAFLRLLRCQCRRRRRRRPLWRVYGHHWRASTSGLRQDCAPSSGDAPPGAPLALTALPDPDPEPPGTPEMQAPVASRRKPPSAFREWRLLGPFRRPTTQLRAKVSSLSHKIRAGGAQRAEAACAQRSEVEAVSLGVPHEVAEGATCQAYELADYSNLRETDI
Description: PDSP Primary Binding target: ADRA1D - Compounds are tested at 10 uM concentration, plate are incubated at room temperature in the dark for 90 minutes. Reaction are stopped by vacuum filtration onto 0.3% polyethyleneimine soaked filter mats using Filtermate harvester. Scintilation cocktail is then melted onto microwave-dried filters on a hot plate and the radio activity is counted in Microbia counter.

For experiment [4], the target named is Sodium-dependent dopamine transporter (Homo sapiens) (UniProt Q01959).
Sequence of Sodium-dependent dopamine transporter (Homo sapiens) (Q01959 whole entry): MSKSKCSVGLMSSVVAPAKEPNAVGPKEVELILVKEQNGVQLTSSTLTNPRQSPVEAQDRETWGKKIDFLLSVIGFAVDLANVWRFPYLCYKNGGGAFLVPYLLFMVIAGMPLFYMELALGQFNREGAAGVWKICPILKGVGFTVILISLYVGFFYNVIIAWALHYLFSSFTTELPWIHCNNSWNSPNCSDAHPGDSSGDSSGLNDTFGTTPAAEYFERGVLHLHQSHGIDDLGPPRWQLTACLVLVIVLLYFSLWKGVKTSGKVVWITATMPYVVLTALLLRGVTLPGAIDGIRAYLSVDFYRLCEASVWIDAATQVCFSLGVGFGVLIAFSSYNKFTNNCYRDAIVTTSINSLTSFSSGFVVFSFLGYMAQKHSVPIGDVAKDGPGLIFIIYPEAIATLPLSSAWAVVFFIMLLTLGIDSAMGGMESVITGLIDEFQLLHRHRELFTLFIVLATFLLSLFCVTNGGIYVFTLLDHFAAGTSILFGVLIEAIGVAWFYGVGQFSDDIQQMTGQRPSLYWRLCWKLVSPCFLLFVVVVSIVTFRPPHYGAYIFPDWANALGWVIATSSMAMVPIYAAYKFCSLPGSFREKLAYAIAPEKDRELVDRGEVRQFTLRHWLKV
Description: PDSP Primary Binding target: SLC6A3 - Compounds are tested at 10 uM concentration, plate are incubated at room temperature in the dark for 90 minutes. Reaction are stopped by vacuum filtration onto 0.3% polyethyleneimine soaked filter mats using Filtermate harvester. Scintilation cocktail is then melted onto microwave-dried filters on a hot plate and the radio activity is counted in Microbia counter.
Experiment [5] deals with T3, Alpha-1A adrenergic receptor (Homo sapiens) (UniProt P35348).
T3 sequence (whole entry): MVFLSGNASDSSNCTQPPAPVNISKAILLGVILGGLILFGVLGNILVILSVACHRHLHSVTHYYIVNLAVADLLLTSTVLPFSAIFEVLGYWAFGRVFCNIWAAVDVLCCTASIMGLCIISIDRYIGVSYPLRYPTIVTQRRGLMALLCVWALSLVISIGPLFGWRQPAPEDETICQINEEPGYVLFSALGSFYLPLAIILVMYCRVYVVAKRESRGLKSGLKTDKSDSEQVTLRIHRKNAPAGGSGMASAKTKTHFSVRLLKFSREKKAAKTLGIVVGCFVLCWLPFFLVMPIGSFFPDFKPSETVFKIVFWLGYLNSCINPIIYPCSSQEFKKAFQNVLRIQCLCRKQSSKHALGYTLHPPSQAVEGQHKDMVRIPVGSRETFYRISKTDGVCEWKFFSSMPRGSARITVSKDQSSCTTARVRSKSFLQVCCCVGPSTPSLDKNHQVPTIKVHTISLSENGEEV
Description: PDSP Primary Binding target: ADRA1A - Compounds are tested at 10 uM concentration, plate are incubated at room temperature in the dark for 90 minutes. Reaction are stopped by vacuum filtration onto 0.3% polyethyleneimine soaked filter mats using Filtermate harvester. Scintilation cocktail is then melted onto microwave-dried filters on a hot plate and the radio activity is counted in Microbia counter.

In experiment [6] the target is Histamine H3 receptor (Homo sapiens) (UniProt Q9Y5N1).
Sequence of Histamine H3 receptor (Homo sapiens) (Q9Y5N1 whole entry): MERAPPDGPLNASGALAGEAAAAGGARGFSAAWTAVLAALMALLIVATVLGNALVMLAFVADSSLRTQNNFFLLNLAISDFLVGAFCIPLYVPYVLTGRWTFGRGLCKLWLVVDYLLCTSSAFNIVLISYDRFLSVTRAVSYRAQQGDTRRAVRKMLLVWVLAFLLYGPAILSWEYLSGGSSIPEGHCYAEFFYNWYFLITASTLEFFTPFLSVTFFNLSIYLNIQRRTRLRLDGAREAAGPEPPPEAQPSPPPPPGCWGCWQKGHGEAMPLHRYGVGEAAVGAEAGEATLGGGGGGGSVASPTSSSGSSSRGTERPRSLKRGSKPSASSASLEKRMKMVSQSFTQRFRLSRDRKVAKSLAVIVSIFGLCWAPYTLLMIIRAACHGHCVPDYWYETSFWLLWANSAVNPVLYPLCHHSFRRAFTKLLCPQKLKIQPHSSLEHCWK
Description: PDSP Primary Binding target: HRH3 - Compounds are tested at 10 uM concentration, plate are incubated at room temperature in the dark for 90 minutes. Reaction are stopped by vacuum filtration onto 0.3% polyethyleneimine soaked filter mats using Filtermate harvester. Scintilation cocktail is then melted onto microwave-dried filters on a hot plate and the radio activity is counted in Microbia counter.
In experiment [7] the target is Mu-type opioid receptor (Homo sapiens) (UniProt P35372).
Sequence of Mu-type opioid receptor (Homo sapiens) (P35372 whole entry): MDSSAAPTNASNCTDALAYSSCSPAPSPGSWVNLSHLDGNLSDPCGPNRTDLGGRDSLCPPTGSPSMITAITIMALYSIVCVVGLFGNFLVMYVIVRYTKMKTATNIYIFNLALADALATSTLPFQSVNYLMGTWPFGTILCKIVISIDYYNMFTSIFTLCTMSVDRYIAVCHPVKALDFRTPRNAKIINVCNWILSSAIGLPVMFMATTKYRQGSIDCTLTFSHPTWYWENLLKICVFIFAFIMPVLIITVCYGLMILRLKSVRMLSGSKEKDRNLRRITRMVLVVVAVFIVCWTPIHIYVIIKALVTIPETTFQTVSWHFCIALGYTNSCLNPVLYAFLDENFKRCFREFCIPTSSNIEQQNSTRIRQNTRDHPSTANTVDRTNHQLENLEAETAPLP
Description: PDSP Primary Binding target: OPRM1 - Compounds are tested at 10 uM concentration, plate are incubated at room temperature in the dark for 90 minutes. Reaction are stopped by vacuum filtration onto 0.3% polyethyleneimine soaked filter mats using Filtermate harvester. Scintilation cocktail is then melted onto microwave-dried filters on a hot plate and the radio activity is counted in Microbia counter.
For experiment [8], the target named is 5-hydroxytryptamine receptor 1E (Homo sapiens) (UniProt P28566).
Sequence of 5-hydroxytryptamine receptor 1E (Homo sapiens) (P28566 whole entry): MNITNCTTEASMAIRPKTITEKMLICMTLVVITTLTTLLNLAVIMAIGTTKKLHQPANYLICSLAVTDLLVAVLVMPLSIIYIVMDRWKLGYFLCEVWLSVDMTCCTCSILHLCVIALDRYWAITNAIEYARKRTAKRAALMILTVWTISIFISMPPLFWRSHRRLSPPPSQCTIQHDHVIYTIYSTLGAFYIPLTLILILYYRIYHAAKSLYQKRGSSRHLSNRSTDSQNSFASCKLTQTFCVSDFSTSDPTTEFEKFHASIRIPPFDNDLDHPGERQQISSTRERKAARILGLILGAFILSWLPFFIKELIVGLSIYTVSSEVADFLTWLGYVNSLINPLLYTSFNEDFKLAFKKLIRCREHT
Description: PDSP Primary Binding target: HTR1E - Compounds are tested at 10 uM concentration, plate are incubated at room temperature in the dark for 90 minutes. Reaction are stopped by vacuum filtration onto 0.3% polyethyleneimine soaked filter mats using Filtermate harvester. Scintilation cocktail is then melted onto microwave-dried filters on a hot plate and the radio activity is counted in Microbia counter.
The target in experiment [9] is 5-hydroxytryptamine receptor 5A (Homo sapiens) (UniProt P47898).
Sequence of 5-hydroxytryptamine receptor 5A (Homo sapiens) (P47898 whole entry): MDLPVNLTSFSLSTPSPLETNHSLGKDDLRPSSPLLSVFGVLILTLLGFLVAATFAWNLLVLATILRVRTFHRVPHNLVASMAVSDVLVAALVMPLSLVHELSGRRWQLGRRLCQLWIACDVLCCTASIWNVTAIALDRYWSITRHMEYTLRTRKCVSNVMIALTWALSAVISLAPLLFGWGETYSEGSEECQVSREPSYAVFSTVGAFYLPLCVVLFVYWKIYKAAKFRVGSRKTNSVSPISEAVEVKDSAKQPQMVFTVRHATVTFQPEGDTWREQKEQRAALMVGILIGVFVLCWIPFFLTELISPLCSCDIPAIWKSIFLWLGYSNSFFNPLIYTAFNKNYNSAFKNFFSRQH
Description: PDSP Primary Binding target: HTR5A - Compounds are tested at 10 uM concentration, plate are incubated at room temperature in the dark for 90 minutes. Reaction are stopped by vacuum filtration onto 0.3% polyethyleneimine soaked filter mats using Filtermate harvester. Scintilation cocktail is then melted onto microwave-dried filters on a hot plate and the radio activity is counted in Microbia counter.
In experiment [10] the target is Histamine H2 receptor (Homo sapiens) (UniProt P25021).
Sequence of Histamine H2 receptor (Homo sapiens) (P25021 whole entry): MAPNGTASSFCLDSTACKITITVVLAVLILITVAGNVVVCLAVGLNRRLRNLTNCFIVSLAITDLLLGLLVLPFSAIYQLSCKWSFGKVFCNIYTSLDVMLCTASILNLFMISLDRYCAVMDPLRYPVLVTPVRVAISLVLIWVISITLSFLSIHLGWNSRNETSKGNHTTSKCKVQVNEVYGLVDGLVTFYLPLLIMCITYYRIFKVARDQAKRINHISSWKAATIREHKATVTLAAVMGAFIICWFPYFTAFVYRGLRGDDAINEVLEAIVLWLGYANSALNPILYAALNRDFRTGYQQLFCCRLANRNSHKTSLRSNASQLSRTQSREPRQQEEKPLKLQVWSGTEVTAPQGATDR
Description: PDSP Primary Binding target: HRH2 - Compounds are tested at 10 uM concentration, plate are incubated at room temperature in the dark for 90 minutes. Reaction are stopped by vacuum filtration onto 0.3% polyethyleneimine soaked filter mats using Filtermate harvester. Scintilation cocktail is then melted onto microwave-dried filters on a hot plate and the radio activity is counted in Microbia counter.
The target of experiment [11] is 5-hydroxytryptamine receptor 1B (Homo sapiens) (UniProt P28222).
Sequence of 5-hydroxytryptamine receptor 1B (Homo sapiens) (P28222 whole entry): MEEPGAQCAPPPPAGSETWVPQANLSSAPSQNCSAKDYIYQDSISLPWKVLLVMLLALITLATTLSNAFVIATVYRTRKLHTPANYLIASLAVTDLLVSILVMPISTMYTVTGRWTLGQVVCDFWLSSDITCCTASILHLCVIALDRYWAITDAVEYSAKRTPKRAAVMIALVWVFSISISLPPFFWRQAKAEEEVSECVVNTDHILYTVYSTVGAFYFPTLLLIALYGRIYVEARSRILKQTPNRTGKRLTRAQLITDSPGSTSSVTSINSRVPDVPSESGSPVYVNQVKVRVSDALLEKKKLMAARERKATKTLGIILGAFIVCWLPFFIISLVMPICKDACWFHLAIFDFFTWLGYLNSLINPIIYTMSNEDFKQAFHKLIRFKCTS
Description: PDSP Primary Binding target: HTR1B - Compounds are tested at 10 uM concentration, plate are incubated at room temperature in the dark for 90 minutes. Reaction are stopped by vacuum filtration onto 0.3% polyethyleneimine soaked filter mats using Filtermate harvester. Scintilation cocktail is then melted onto microwave-dried filters on a hot plate and the radio activity is counted in Microbia counter.
The target in experiment [12] is Histamine H1 receptor (Homo sapiens) (UniProt P35367).
Sequence of Histamine H1 receptor (Homo sapiens) (P35367 whole entry): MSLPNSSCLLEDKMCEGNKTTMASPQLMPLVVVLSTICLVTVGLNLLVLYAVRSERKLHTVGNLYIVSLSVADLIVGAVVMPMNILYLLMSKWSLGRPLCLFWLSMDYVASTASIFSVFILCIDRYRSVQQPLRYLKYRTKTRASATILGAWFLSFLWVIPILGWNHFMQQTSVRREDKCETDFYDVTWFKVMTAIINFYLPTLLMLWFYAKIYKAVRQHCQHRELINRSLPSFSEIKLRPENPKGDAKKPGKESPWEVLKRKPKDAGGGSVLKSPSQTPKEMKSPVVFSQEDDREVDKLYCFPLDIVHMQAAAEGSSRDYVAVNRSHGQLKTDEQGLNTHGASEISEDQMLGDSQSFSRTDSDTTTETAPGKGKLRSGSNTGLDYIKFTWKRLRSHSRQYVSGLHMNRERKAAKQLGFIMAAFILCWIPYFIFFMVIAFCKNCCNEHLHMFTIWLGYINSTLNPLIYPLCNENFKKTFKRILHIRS
Description: PDSP Primary Binding target: HRH1 - Compounds are tested at 10 uM concentration, plate are incubated at room temperature in the dark for 90 minutes. Reaction are stopped by vacuum filtration onto 0.3% polyethyleneimine soaked filter mats using Filtermate harvester. Scintilation cocktail is then melted onto microwave-dried filters on a hot plate and the radio activity is counted in Microbia counter.
For experiment [13], the target named is 5-hydroxytryptamine receptor 2A (Homo sapiens) (UniProt P28223).
Sequence of 5-hydroxytryptamine receptor 2A (Homo sapiens) (P28223 whole entry): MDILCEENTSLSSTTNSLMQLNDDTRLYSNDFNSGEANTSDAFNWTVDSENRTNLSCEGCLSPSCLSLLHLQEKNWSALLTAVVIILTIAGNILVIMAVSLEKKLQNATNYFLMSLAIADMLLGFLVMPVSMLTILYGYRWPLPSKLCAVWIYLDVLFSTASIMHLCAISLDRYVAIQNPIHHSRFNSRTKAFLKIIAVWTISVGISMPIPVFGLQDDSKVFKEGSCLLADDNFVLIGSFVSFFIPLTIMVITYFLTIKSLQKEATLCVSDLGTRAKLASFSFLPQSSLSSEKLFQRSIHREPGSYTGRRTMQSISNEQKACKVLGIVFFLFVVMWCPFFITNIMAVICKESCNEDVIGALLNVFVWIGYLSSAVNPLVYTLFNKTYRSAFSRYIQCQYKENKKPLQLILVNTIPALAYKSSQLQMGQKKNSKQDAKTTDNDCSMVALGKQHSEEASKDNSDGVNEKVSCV
Description: PDSP Primary Binding target: HTR2A - Compounds are tested at 10 uM concentration, plate are incubated at room temperature in the dark for 90 minutes. Reaction are stopped by vacuum filtration onto 0.3% polyethyleneimine soaked filter mats using Filtermate harvester. Scintilation cocktail is then melted onto microwave-dried filters on a hot plate and the radio activity is counted in Microbia counter.
Experiment [14] has as its target T4, Muscarinic acetylcholine receptor M5 (Homo sapiens) (UniProt P08912).
T4 sequence (whole entry): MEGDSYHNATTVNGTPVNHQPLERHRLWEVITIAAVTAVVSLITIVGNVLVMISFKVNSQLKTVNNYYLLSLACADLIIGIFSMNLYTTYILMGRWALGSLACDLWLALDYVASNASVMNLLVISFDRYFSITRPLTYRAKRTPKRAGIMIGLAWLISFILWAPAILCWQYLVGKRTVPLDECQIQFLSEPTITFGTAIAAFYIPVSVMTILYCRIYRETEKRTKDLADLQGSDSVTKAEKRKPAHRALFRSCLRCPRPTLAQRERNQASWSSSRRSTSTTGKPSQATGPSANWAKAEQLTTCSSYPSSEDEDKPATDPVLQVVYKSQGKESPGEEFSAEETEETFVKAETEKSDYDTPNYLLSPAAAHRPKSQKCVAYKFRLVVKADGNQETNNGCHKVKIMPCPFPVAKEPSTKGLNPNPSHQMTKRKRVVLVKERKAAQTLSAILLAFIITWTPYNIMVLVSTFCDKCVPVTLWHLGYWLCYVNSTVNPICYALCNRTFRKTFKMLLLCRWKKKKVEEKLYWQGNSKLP
Description: PDSP Primary Binding target: CHRM5 - Compounds are tested at 10 uM concentration, plate are incubated at room temperature in the dark for 90 minutes. Reaction are stopped by vacuum filtration onto 0.3% polyethyleneimine soaked filter mats using Filtermate harvester. Scintilation cocktail is then melted onto microwave-dried filters on a hot plate and the radio activity is counted in Microbia counter.

In experiment [15] the target is 5-hydroxytryptamine receptor 1D (Homo sapiens) (UniProt P28221).
Sequence of 5-hydroxytryptamine receptor 1D (Homo sapiens) (P28221 whole entry): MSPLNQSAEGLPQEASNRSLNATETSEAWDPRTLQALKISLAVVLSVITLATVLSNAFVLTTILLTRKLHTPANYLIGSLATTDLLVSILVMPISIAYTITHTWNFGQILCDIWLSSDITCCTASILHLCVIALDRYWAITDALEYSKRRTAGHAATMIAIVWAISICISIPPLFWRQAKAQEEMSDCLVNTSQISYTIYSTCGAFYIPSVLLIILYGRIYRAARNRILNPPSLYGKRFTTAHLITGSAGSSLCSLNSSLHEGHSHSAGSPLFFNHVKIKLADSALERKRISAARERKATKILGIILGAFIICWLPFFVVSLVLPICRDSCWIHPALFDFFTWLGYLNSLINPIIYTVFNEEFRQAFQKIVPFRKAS
Description: PDSP Primary Binding target: HTR1D - Compounds are tested at 10 uM concentration, plate are incubated at room temperature in the dark for 90 minutes. Reaction are stopped by vacuum filtration onto 0.3% polyethyleneimine soaked filter mats using Filtermate harvester. Scintilation cocktail is then melted onto microwave-dried filters on a hot plate and the radio activity is counted in Microbia counter.

The inhibition is the drop in the measured response relative to a control, in per cent.

As to `CN(C(=O)Cc1ccc(Cl)c(Cl)c1)C(CN1CCCC1)c1cccc(OCC(=O)O)c1` (stereo not drawn), the inhibition in [1] was 24.9%; in experiment [2], 20.5%; in experiment [3] it was 5.15%; in [4] it was 26.4%; in [5], -0.83%; in [6] it was -7.51%. For the same compound, the inhibition in experiment [7] is 87.5%; in experiment [8] it was -3.71%; in [9], 1.89%; in experiment [10] it was 28.1%; in [11], 11.1%; in experiment [12], 47.4%. In addition, the inhibition in experiment [13] was 42.8%; in [14], 59.6%.
As for `Nc1nc2c(c(N3CCNCC3)n1)CCC1=C2[C@@H]2CCCC[C@@H]2O1`, the inhibition was 10% in experiment [15]; 49.9% in [1]; -7.78% in experiment [5]; 34.4% in [6]; 26.7% in experiment [7]; 34.5% in experiment [8]. In addition, the inhibition was -4.34% in [9]; 43.4% in [10]; 55% in [12]; 50.6% in experiment [13]; -3.04% in [14].
For `Cc1cc(NC(=O)Nc2ccc(N(C)C)cc2)c2cc(F)cc(F)c2n1`, the inhibition in experiment [15] was -2.42%; in experiment [3], 6.71%; in [4] it was 22.8%; in experiment [5], 3.42%; in [6] it was 28.6%; in experiment [7] it was 1.4%. The inhibition in experiment [8] is -4.12%; in [10], 16.8%; in [12], 6.41%; in experiment [13], 13%; in [14], 39.2%.
With `COc1ccc(Br)cc1S(=O)(=O)NC(=O)/C=C/c1ccccc1Cc1ccc2ccccc2c1`, the inhibition in experiment [15] was 12%; in experiment [1], 9.76%; in experiment [3], 16.2%; in experiment [5], 17.8%; in experiment [6], 5.89%; in experiment [7], 22.1%. Moreover, the inhibition in experiment [8] was 1.84%; in experiment [10], 16%; in experiment [11] it was 3.55%; in [12], 9.07%; in [13], 8.02%; in [14], 16.9%.
For the compound `c1ccc(N2CCN(Cc3nc4ccccc4[nH]3)CC2)nc1`, the inhibition in [1] is 35.1%; in experiment [2], 13.5%; in experiment [4], 22.6%; in experiment [5] it was 6.23%; in experiment [6], 0.89%; in [7], 4.96%. The inhibition in experiment [8] was 6.29%; in [9], 11.8%; in experiment [10] it was 10.1%; in experiment [11] it was 6.19%; in experiment [12] it was 15.6%; in [13], 6.02%. Moreover, the inhibition in experiment [14] is -1.59%.
With `C/C(=N\NC(=O)[C@@H]1C(=O)NC[C@H]1c1ccccc1)c1cccc(Br)c1`, the inhibition in experiment [1] is 26.4%; in experiment [2], -3.09%; in experiment [3] it was -1.53%; in [5], 4.55%; in experiment [6], 7.14%; in experiment [7] it was 50.1%. The inhibition in experiment [9] was 18.8%; in [10], 20.4%; in [11] it was 3.07%; in experiment [12], 58.5%; in [13], 62.6%.
For `CCc1cc(C(C)=O)c(O)cc1OCCCCCC(C)(C)c1nn[nH]n1`, the inhibition in [1] is -8.57%; in [2] it was 18.3%; in experiment [3] it was 19.5%; in experiment [4], 32.8%; in [5], 8.06%; in experiment [6], 0.93%. The inhibition was 8.2% in [7]; 8.4% in experiment [9]; 6.38% in [10]; 14.7% in [11]; 17.1% in [12]; 12.7% in experiment [13]. The inhibition in experiment [14] is 47.9%.
Consider `Cc1nc(C(=O)N2CCC[C@H]2Cc2nnc(-c3ccccc3)o2)c(-c2ccccc2F)s1`, for which the inhibition in [1] is 3.86%; in experiment [3] it was 26.4%; in [4] it was 26.1%; in experiment [5], 1.08%; in [6], 22.7%; in experiment [7], 7.98%. The inhibition is -8.85% in experiment [8]; 12.1% in experiment [9]; -4.23% in [10]; 30.3% in experiment [12]; 8.26% in experiment [13]; 29.8% in experiment [14].
`CCCCC#Cc1nc(NC)c2ncn([C@@H]3O[C@H](CO)[C@@H](O)[C@H]3O)c2n1`: the inhibition in [15] is 8.46%; in experiment [1] it was 3.96%; in experiment [3], -1.99%; in experiment [5], -3.3%; in [6] it was 7.95%; in [7], 2.4%. For the same compound, the inhibition is 18.8% in experiment [8]; -6.71% in [9]; 16% in experiment [10]; -7.26% in experiment [11]; 20.6% in experiment [12]; 92.5% in experiment [13]. The inhibition in experiment [14] was 20%.
Turning to `CC(C)C[C@H](NC(=O)N1CCCCCC1)C(=O)N[C@H](Cc1cn(C)c2ccccc12)C(=O)N[C@H](Cc1ccccn1)C(=O)O`, the inhibition was -0.82% in experiment [2]; -1.54% in experiment [4]; 14.1% in [5]; 16.7% in [7]; 18% in experiment [10]; -2.58% in experiment [11]. The inhibition in [12] was 5.31%; in experiment [13], -0.06%.
